In test [1] the target is T1, UDP-3-O-acyl-N-acetylglucosamine deacetylase (Pseudomonas aeruginosa, UniProt B5ATN6).
T1 sequence (B5ATN6 whole entry): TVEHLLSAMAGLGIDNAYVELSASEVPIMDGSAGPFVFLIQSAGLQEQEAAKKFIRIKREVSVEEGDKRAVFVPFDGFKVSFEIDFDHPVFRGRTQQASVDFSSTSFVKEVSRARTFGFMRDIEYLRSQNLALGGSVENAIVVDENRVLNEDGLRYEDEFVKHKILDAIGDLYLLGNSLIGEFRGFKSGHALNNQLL
Description: Inhibition of recombinant Pseudomonas aeruginosa LpxC expressed in Escherichia coli.

Test [2] deals with Pseudomonas aeruginosa. Kind of test: Antibacterial activity against Pseudomonas aeruginosa clinical isolate assessed as bacterial growth inhibition by microdilution assay. Format: functional. (Broth dilution looks for growth in wells or tubes with falling amounts of substance.)
The test system of test [3] is Escherichia coli. Description: Antibacterial activity against Escherichia coli CMCC 25922 assessed as bacterial growth inhibition measured after 22 hrs. In kind it is functional.
Test [4] concerns Escherichia coli. Kind of test: Antibacterial activity against Escherichia coli CMCC 44568 assessed as bacterial growth inhibition measured after 22 hrs. In kind it is functional.
The test system of test [5] is Pseudomonas aeruginosa. Kind of test: Antibacterial activity against Pseudomonas aeruginosa CMCC 27853 assessed as bacterial growth inhibition measured after 22 hrs. Format: functional.
Test [6] relates to Pseudomonas aeruginosa. Kind of test: Antibacterial activity against Pseudomonas aeruginosa CMCC 10104 assessed as bacterial growth inhibition measured after 22 hrs. In kind it is functional.
Test [7] addresses T2, UDP-3-O-acyl-N-acetylglucosamine deacetylase (Aquifex aeolicus (strain VF5), UniProt O67648).
T2 sequence (O67648 whole entry): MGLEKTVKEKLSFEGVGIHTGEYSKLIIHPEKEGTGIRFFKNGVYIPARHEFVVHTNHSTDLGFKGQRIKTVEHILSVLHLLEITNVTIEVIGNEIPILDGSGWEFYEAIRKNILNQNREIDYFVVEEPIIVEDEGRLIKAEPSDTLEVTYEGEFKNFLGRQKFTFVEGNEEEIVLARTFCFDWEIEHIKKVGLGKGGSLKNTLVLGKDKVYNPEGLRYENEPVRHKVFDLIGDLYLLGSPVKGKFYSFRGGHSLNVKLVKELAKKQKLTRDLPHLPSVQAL
Kind of test: Inhibition of Aquifex aeolicus LpxC transformed in Escherichia coli BL21(DE3) pLysS cells.

For test [8], the system named is Escherichia coli. Kind of test: Antibacterial activity against wild type Escherichia coli W3110 assessed as bacterial growth inhibition measured after 22 hrs by MTT assay. Format: functional.
The subject of test [9] is Pseudomonas aeruginosa. Kind of test: Antibacterial activity against Pseudomonas aeruginosa HER 1018 assessed as bacterial growth inhibition by twofold dilution method. In kind it is functional.
Test [10] deals with Escherichia coli. Description: Antibacterial activity against Escherichia coli DH5alpha assessed as bacterial growth inhibition measured after 18 hrs by broth microdilution assay. Format: functional.
Test [11] deals with Pseudomonas aeruginosa. Description: Antibacterial activity against Pseudomonas aeruginosa PAO1 assessed as bacterial growth inhibition measured after 18 hrs by broth microdilution assay. In kind it is functional.
Test [12] relates to Pseudomonas aeruginosa. Kind of test: Antibacterial activity against Pseudomonas aeruginosa PA14 assessed as bacterial growth inhibition measured after 18 hrs by broth microdilution assay. In kind it is functional.
In test [13] the target is T3, UDP-3-O-acyl-N-acetylglucosamine deacetylase (Escherichia coli K-12, UniProt P0A725).
T3 sequence (P0A725 whole entry): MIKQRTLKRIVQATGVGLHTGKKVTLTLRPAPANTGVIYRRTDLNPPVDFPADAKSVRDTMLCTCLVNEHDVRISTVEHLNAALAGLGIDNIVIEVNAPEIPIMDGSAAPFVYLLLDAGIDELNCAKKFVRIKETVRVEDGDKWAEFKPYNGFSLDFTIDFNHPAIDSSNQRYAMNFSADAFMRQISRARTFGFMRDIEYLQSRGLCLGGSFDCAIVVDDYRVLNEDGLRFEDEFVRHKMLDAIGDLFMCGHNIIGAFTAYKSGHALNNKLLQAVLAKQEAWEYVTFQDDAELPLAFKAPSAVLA
Description: Inhibition of Escherichia coli LpxC.

Test [14] has as its system Escherichia coli. Description: Antibacterial activity against Escherichia coli assessed as bacterial growth inhibition two-fold microdilution. In kind it is functional.
The subject of another test is Klebsiella pneumoniae. Kind of test: Antibacterial activity against Klebsiella pneumoniae assessed as bacterial growth inhibition two-fold microdilution. Format: functional.
For test [15], the system named is Escherichia coli. Kind of test: Antibacterial activity against Escherichia coli MB4926 assessed as bacterial growth inhibition. In kind it is functional.
Test [16] deals with Escherichia coli. Description: Antibacterial activity against Escherichia coli MB5500 assessed as bacterial growth inhibition. In kind it is functional.
Test [17] has as its system Escherichia coli. Kind of test: Antibacterial activity against Escherichia coli D21 assessed as bacterial growth inhibition measured after 20 hrs by checkerboard method. Format: functional.
Test [18] deals with T3, UDP-3-O-acyl-N-acetylglucosamine deacetylase. Description: Inhibition of Escherichia coli LpxC assessed as inhibition constant measured after 30 mins by fluorescence based microplate assay.

A word on the IC50: it is the concentration at which inhibition is half-maximal. Usually MIC stands for the lowest concentration that inhibits growth of the organism. As usually defined, the Ki is the equilibrium dissociation constant of an inhibitor or competing ligand from its target.

Converted amounts (≈) assume the structure as drawn.

`CC(C)(N)[C@H](NC(=O)c1ccc(C#CC#C[C@@H](O)CO)cc1)C(=O)NO`: in [1], the IC50 is 12 nM. Further, the MIC in the test with Pseudomonas aeruginosa [2] is 8.8 µg/mL.

For `N=C(N)N/N=C/c1ccc(C#Cc2ccc(Cl)cc2)cc1`, the MIC was 2 µg/mL (≈ 6.74 µM) in the test with Escherichia coli [3], 2 µg/mL (≈ 6.74 µM) with Escherichia coli [4], more than 128 µg/mL in the test with Pseudomonas aeruginosa [5] and 1 µg/mL (≈ 3.37 µM) with Pseudomonas aeruginosa [6].

For the molecule `CCCCCC(=O)O[C@@H]1[C@@H](CP(C)(=O)O)CO[C@H](CO)[C@H]1O`, in [7], it took 192 nM to reach half-maximal inhibition (IC50).

In the case of `C[C@@H](O)[C@H](NC(=O)c1ccc(C#CC#Cc2ccccc2)cc1)C(=O)NO`, the MIC in the test with Escherichia coli [8] was found to be 0.05 µg/mL (≈ 0.138 µM).

Take `CC(C)(N)[C@H](NC(=O)c1ccc(C#CC#C[C@H](O)CO)cc1)C(=O)NO`: the IC50 in test [1] is 19 nM. Further, in the test on Pseudomonas aeruginosa [2], the MIC worked out at 3.5 µg/mL.

With `CS(=O)(=O)[C@](F)(CCc1ccc(-c2ccccc2)cc1)C(=O)NO`, in the test on Pseudomonas aeruginosa [9], the MIC was found to be 12.5 µg/mL (≈ 35.6 µM).

Take `COC1([C@H](NC(=O)c2ccc(C#CC#CCCO)cc2)C(=O)NO)CS(=O)(=O)C1`: in the test with Pseudomonas aeruginosa [2], the MIC stood at 2.3 µg/mL.

For `O=C(C[C@@H]1CN(c2ccc(C#Cc3ccccc3)cc2)CO1)NO`, the figures for the MIC in the test on Escherichia coli [10], in the test on Pseudomonas aeruginosa [11] and in the test on Pseudomonas aeruginosa [12] were 1.25 µM (≈ 0.403 µg/mL), 1.25 µg/mL (≈ 3.88 µM) and 10 µg/mL (≈ 31 µM), respectively.

For the molecule `N=C(N)N/N=C/c1ccc(C#CC#Cc2ccccc2Cl)cc1`, the MIC in the test with Escherichia coli [3] was 8 µg/mL (≈ 24.9 µM); with Escherichia coli [4], 64 µg/mL (≈ 200 µM); with Pseudomonas aeruginosa [5], more than 128 µg/mL; with Pseudomonas aeruginosa [6], 4 µg/mL (≈ 12.5 µM).

`C[C@H](O)c1nccn1Cc1cc(-c2ccc(C#C[C@@H]3[C@H]4CN(CCCC(=O)O)C[C@@H]34)cc2)on1` gave an IC50 in test [13] of 101 nM. Moreover, the MIC in the test on Escherichia coli [14] and in the test with Klebsiella pneumoniae was 2 µg/mL (≈ 4.34 µM) throughout.

`CCCc1cc(C2=N[C@@H](C(=O)NO)CO2)cc(OC)c1OC`: the MIC with Escherichia coli [15] and in the test with Escherichia coli [16] was 1 µg/mL (≈ 3.24 µM) in each case.

In the case of `O=C(NO)[C@@H](Cc1ccc2ccccc2c1)NS(=O)(=O)c1ccc2ccccc2c1`, the MIC in the test with Escherichia coli [17] is 2 µg/mL.

For the molecule `O=c1ccn([C@@H]2O[C@H](CO/N=C/c3ccc(O)c(O)c3O)[C@@H](O)[C@H]2O)c(=O)[nH]1`, the IC50 in test [13] stood at 27000 nM.

For `CC(C)(N)[C@H](NC(=O)c1ccc(C#CC#CC2CC2)cc1)C(=O)NO`, the IC50 in [1] was 0.62 nM. For the same molecule, the MIC in the test on Pseudomonas aeruginosa [2] came to 0.16 µg/mL.

With `C[C@@H](O)[C@](C)(NC(=O)c1ccc(C#CC#Cc2ccc(N)cc2)cc1)C(=O)NO`, the MIC in the test with Escherichia coli [8] came out at 0.24 µg/mL (≈ 0.613 µM).

Consider `O=C(NO)C1(COc2ccc(C#Cc3ccc(CN4CCOCC4)cc3)cc2)CCOCC1`, for which, in [18], the Ki was 352 nM.

The molecule `O=C(CO/N=C/c1ccc(O)c(O)c1O)NC[C@H]1O[C@@H](n2ccc(=O)[nH]c2=O)[C@H](O)[C@@H]1O` gave an IC50 in [13] of 120000 nM.

Values taken from ChEMBL document CHEMBL5360564, “Small molecule LpxC inhibitors against gram-negative bacteria: Advances and future perspectives” (Eur J Med Chem, 2023).
